Experimental data: paper PMC7587356, “High-Throughput Screening for Inhibitors of the SARS-CoV-2 Protease Using a FRET-Biosensor” (Molecules, 2020)
Where a name gives a salt, the structure may show the parent alone. Read-outs that look alike come from different tables or passages of the source.

Target: SARS-CoV-2 3CLpro (Severe acute respiratory syndrome coronavirus 2, UniProt P0DTD1)
Experiment: biochemical
Assay type: biochemical
Design: Replicate_1 / Replicate_2 / mean / mean (LOPAC_screen_w_protease): unit not given here
Conditions: for inhibition at 5 µM: 4 h
[1] = sheet LOPAC_screen_w_protease, primary screen at 5 µM, mean of two replicates
[2] = sheet LOPAC_screen_w_protease, primary screen at 5 µM, replicate 1
[3] = sheet LOPAC_screen_w_protease, primary screen at 5 µM, replicate 2
[4] = sheet LOPAC_screen_w_protease, LOPAC1280 primary screen with protease, 5 µM compound, mean of the two replicates
[5] = sheet LOPAC_screen_w_protease, LOPAC1280 primary screen with protease, 5 µM compound, replicate 1
[6] = sheet LOPAC_screen_w_protease, LOPAC1280 primary screen with protease, 5 µM compound, replicate 2
[7] = sheet LOPAC_screen_w_protease, primary screen with protease, compound at 5 µM, mean of two replicates, read-out: mean
[8] = sheet LOPAC_screen_w_protease, primary screen with protease, compound at 5 µM, replicate 1, read-out: Replicate_1
[9] = sheet LOPAC_screen_w_protease, primary screen with protease, compound at 5 µM, replicate 2, read-out: Replicate_2
[10] = sheet LOPAC_screen_w_protease, primary screen with protease, mean of two replicates, read-out: mean
[11] = sheet LOPAC_screen_w_protease, primary screen with protease, replicate 1, read-out: Replicate_1
[12] = sheet LOPAC_screen_w_protease, primary screen with protease, replicate 2, read-out: Replicate_2
[13] = sheet LOPAC_screen_w_protease, primary screen with protease, mean of two replicates
[14] = sheet LOPAC_screen_w_protease, primary screen with protease, replicate 1
[15] = sheet LOPAC_screen_w_protease, primary screen with protease, replicate 2
[16] = sheet LOPAC_screen_w_protease, primary screen of LOPAC1280 at 5 µM with protease, mean of the two replicates, read-out: mean
[17] = sheet LOPAC_screen_w_protease, primary screen of LOPAC1280 at 5 µM with protease, replicate 1, read-out: Replicate_1
[18] = sheet LOPAC_screen_w_protease, primary screen of LOPAC1280 at 5 µM with protease, replicate 2, read-out: Replicate_2
[19] = sheet LOPAC_screen_w_protease, primary screen with protease, compound at 5 µM, mean of two replicates
[20] = sheet LOPAC_screen_w_protease, primary screen with protease, compound at 5 µM, replicate 1
[21] = sheet LOPAC_screen_w_protease, primary screen with protease, compound at 5 µM, replicate 2
[22] = sheet LOPAC_screen_w_protease, LOPAC1280 at 5 µM, mean of two replicates
[23] = sheet LOPAC_screen_w_protease, LOPAC1280 at 5 µM, replicate 1
[24] = sheet LOPAC_screen_w_protease, LOPAC1280 at 5 µM, replicate 2
[25] = sheet LOPAC_screen_w_protease, LOPAC1280 primary screen with protease, 5 µM compound, mean of the two replicates, read-out: mean
[26] = sheet LOPAC_screen_w_protease, LOPAC1280 primary screen with protease, 5 µM compound, replicate 1, read-out: Replicate_1
[27] = sheet LOPAC_screen_w_protease, LOPAC1280 primary screen with protease, 5 µM compound, replicate 2, read-out: Replicate_2
[28] = LOPAC1280 primary screen with protease, 5 µM compound, mean of two replicates
[29] = LOPAC1280 primary screen with protease, 5 µM compound, replicate 1
[30] = LOPAC1280 primary screen with protease, 5 µM compound, replicate 2
[31] = LOPAC1280 primary screen with protease, 5 µM compound, replicate 1, read-out: Replicate_1 (LOPAC_screen_w_protease)
[32] = sheet LOPAC_screen_w_protease, primary screen at 5 µM, mean of two replicates, read-out: mean (LOPAC screen with protease)
[33] = sheet LOPAC_screen_w_protease, primary screen at 5 µM, replicate 1, read-out: Replicate_1 (LOPAC screen with protease)
[34] = sheet LOPAC_screen_w_protease, primary screen at 5 µM, replicate 2, read-out: Replicate_2 (LOPAC screen with protease)
[35] = sheet LOPAC_screen_w_protease, LOPAC1280 primary screen at 5 µM, with protease, mean of the two replicates
[36] = sheet LOPAC_screen_w_protease, LOPAC1280 primary screen at 5 µM, with protease, replicate 1
[37] = sheet LOPAC_screen_w_protease, LOPAC1280 primary screen at 5 µM, with protease, replicate 2

Compound: Cc1ccc(S(=O)(=O)N[C@@H](CCCCN)C(=O)CCl)cc1.Cl
- mean (LOPAC screen with protease) [1]: 20.7427
- Replicate_1 (LOPAC screen with protease) [2]: 21.9131
- Replicate_2 (LOPAC screen with protease) [3]: 19.5724

Compound: CC(COc1ccc(/C=C/c2ccccc2)cc1)[N+](C)(C)C.[I-] (centres unmarked)
- mean [4]: 5.814
- Replicate_1 [5]: 7.703
- Replicate_2 [6]: 3.926

Compound: CNc1ccc2oc(C[C@H]3O[C@@]4(CC[C@H]3C)O[C@H]([C@H](C)C(=O)c3ccc[nH]3)[C@H](C)C[C@H]4C)nc2c1C(=O)O [Calcimycin]
- inhibition at 5 µM [7]: 3.09%
- inhibition at 5 µM [8]: 2.08%
- inhibition at 5 µM [9]: 4.1%

Compound: CCCC1O[C@@H]2C[C@H]3[C@@H]4CCC5=CC(=O)C=C[C@]5(C)[C@H]4[C@@H](O)C[C@]3(C)[C@]2(C(=O)CO)O1 (some centres unmarked) [Budesonide]
- inhibition at 5 µM [7]: 3.01%
- inhibition at 5 µM [8]: 1.81%
- inhibition at 5 µM [9]: 4.21%

Compound: CNC(=O)[C@H]1O[C@@H](n2cnc3c(NCc4cccc(I)c4)ncnc32)[C@H](O)[C@@H]1O [IB-MECA]
- inhibition at 5 µM [10]: 2.39%
- inhibition at 5 µM [11]: 2.72%
- inhibition at 5 µM [12]: 2.06%

Compound: CCC1(c2ccc(N)cc2)CCC(=O)NC1=O (racemic) [(±)-p-Aminoglutethimide]
- mean [13]: 2.443
- Replicate_1 [14]: 1.25
- Replicate_2 [15]: 3.637

Compound: O=C(O)c1cc(O)c2ccc(Cl)cc2n1 [7-Chlorokynurenic acid]
- inhibition at 5 µM [16]: 3.48%
- inhibition at 5 µM [17]: 3.97%
- inhibition at 5 µM [18]: 2.98%

Compound: O=c1onc2cnc3ccccc3n12 [ODQ]
- mean [19]: 2.809
- Replicate_1 [20]: 2.693
- Replicate_2 [21]: 2.926

Compound: NC(=O)C1=CN([C@@H]2O[C@H](COP(=O)([O-])OP(=O)([O-])OC[C@H]3O[C@@H](n4cnc5c(N)ncnc54)[C@H](OP(=O)([O-])[O-])[C@@H]3O)[C@@H](O)[C@H]2O)C=CC1.[Na+].[Na+].[Na+].[Na+] [NADPH tetrasodium]
- mean [22]: 1.2074
- Replicate_1 [23]: 1.812
- Replicate_2 [24]: 0.6031

Compound: CC(N)C(=O)OC(C)(C)Cc1ccc(Cl)cc1 (centres unmarked) [Alaproclate hydrochloride]
- inhibition at 5 µM [16]: 3.56%
- inhibition at 5 µM [17]: 2.81%
- inhibition at 5 µM [18]: 4.3%

Compound: CN(C)C(=O)Oc1cccc([N+](C)(C)C)c1 [Neostigmine bromide]
- inhibition at 5 µM [25]: 5.51%
- inhibition at 5 µM [26]: 4.9%
- inhibition at 5 µM [27]: 6.13%

Compound: CCCN(CCC)C(=O)C(CCC(=O)O)NC(=O)c1ccccc1 (centres unmarked) [Proglumide]
- inhibition at 5 µM [25]: 4.27%
- inhibition at 5 µM [26]: 4.11%
- inhibition at 5 µM [27]: 4.43%

Compound: Cl.NC1CCN(c2cccc(Cl)n2)CC1 [SR 57227A]
- mean [22]: 1.074
- Replicate_1 [23]: 1.181
- Replicate_2 [24]: 0.9673

Compound: Br.CN1CCc2c(cc(O)c(O)c2Cl)C(c2cccc(Cl)c2)C1 (centres unmarked) [SKF 83565 hydrobromide]
- mean (LOPAC screen with protease) [1]: 22.1474
- Replicate_1 (LOPAC screen with protease) [2]: 23.5852
- Replicate_2 (LOPAC screen with protease) [3]: 20.7095

Compound: CC1OC(C[N+](C)(C)C)CS1.[I-] (centres unmarked) [OXA-22 iodide]
- mean [4]: 6.327
- Replicate_1 [5]: 7.065
- Replicate_2 [6]: 5.588

Compound: CC(C)(Oc1ccc(C2CC2(Cl)Cl)cc1)C(=O)O (centres unmarked) [Ciprofibrate]
- inhibition at 5 µM [10]: 2.4%
- inhibition at 5 µM [11]: 2.2%
- inhibition at 5 µM [12]: 2.6%

Compound: Nc1nc(Cl)nc2c1ncn2[C@@H]1O[C@H](COP(=O)(O)OP(=O)(O)OP(=O)(O)O)C(O)C1O (stereo in doubt)
- mean (LOPAC_screen_w_protease) [28]: 1.575
- Replicate_1 (LOPAC_screen_w_protease) [29]: 3.171
- Replicate_2 (LOPAC_screen_w_protease) [30]: -0.0216

Compound: CCCc1c(-c2ccc(O)cc2)nn(-c2ccc(O)cc2)c1-c1ccc(O)cc1
- mean [22]: 1.246
- Replicate_1 [23]: 3.0422
- Replicate_2 [24]: -0.5503

Compound: Br.CN1CCc2cc(O)c(O)cc2C(c2ccccc2)C1 (centres unmarked) [SKF 75670 hydrobromide]
- mean (LOPAC screen with protease) [1]: 25.5455
- Replicate_1 (LOPAC screen with protease) [2]: 25.015
- Replicate_2 (LOPAC screen with protease) [3]: 26.0759

Compound: CN(C)CCC=C1c2ccccc2COc2ccccc21 [Doxepin hydrochloride]
- inhibition at 5 µM [31]: 1.2%
- inhibition at 5 µM (LOPAC1280 primary screen with protease, 5 µM compound, replicate 2, read-out: Replicate_2 (LOPAC_screen_w_protease)): 1.88%
- mean (LOPAC_screen_w_protease) [28]: 1.543

Compound: CCOC(=O)[N-]c1cn(N2CCOCC2)n[o+]1 [Molsidomine]
- inhibition at 5 µM [7]: 2.83%
- inhibition at 5 µM [8]: 1.44%
- inhibition at 5 µM [9]: 4.23%

Compound: COc1ccc(C(=O)N2CCCC2=O)cc1 [Aniracetam]
- inhibition at 5 µM [32]: 6.69%
- inhibition at 5 µM [33]: 9.93%
- inhibition at 5 µM [34]: 3.46%

Compound: Cl.Clc1cc(I)cc(Cl)c1NC1=NCCN1 [p-Iodoclonidine hydrochloride]
- mean [13]: 2.258
- Replicate_1 [14]: 3.3723
- Replicate_2 [15]: 1.143

Compound: N#CC(C#N)=C(N)/C(C#N)=C/c1ccc(O)cc1 [Tyrphostin AG 112]
- mean [13]: 2.497
- Replicate_1 [14]: 2.949
- Replicate_2 [15]: 2.046

Compound: C=C(C)[C@H]1Cc2c(ccc3c2O[C@@H]2COc4cc(OC)c(OC)cc4[C@@H]2C3=O)O1 [Rotenone]
- inhibition at 5 µM (sheet LOPAC_screen_w_protease, LOPAC1280 primary screen at 5 µM, with protease, mean of the two replicates, read-out: mean): 0.71%
- inhibition at 5 µM (sheet LOPAC_screen_w_protease, LOPAC1280 primary screen at 5 µM, with protease, replicate 1, read-out: Replicate_1): 2.43%
- inhibition at 5 µM (sheet LOPAC_screen_w_protease, LOPAC1280 primary screen at 5 µM, with protease, replicate 2, read-out: Replicate_2): -1.01%

Compound: COc1cccc(OC)c1OCCNCC1COc2ccccc2O1.Cl (centres unmarked) [WB-4101 hydrochloride]
- mean (LOPAC_screen_w_protease) [28]: 1.343
- Replicate_1 (LOPAC_screen_w_protease) [29]: 1.824
- Replicate_2 (LOPAC_screen_w_protease) [30]: 0.8625

Compound: CC1=NN=C(c2ccc(N)cc2)c2cc3c(cc2C1)OCO3.Cl [GYKI 52466 hydrochloride]
- mean [35]: 0.5948
- Replicate_1 [36]: 3.75
- Replicate_2 [37]: -2.56

Compound: Cl.NCCS [Cysteamine hydrochloride]
- mean (LOPAC screen with protease) [1]: 8.502
- Replicate_1 (LOPAC screen with protease) [2]: 9.009
- Replicate_2 (LOPAC screen with protease) [3]: 7.996

Compound: C[N+](C)(C)CC#CCN1CCCC1=O [Oxotremorine methiodide]
- inhibition at 5 µM [32]: 7.27%
- inhibition at 5 µM [33]: 7.16%
- inhibition at 5 µM [34]: 7.38%

Compound: CN1CCN(C2=Nc3cc(Cl)ccc3Nc3ccccc32)CC1 [Clozapine]
- inhibition at 5 µM [10]: 2.28%
- inhibition at 5 µM [11]: 2.27%
- inhibition at 5 µM [12]: 2.3%

Compound: CC[C@@H]1C(=O)OC[C@@H]1Cc1cncn1C.Cl [(+)-Pilocarpine hydrochloride]
- mean [35]: 0.6668
- Replicate_1 [36]: 2.011
- Replicate_2 [37]: -0.6778

Compound: CCN1CCC[C@H]1CNC(=O)c1cc(S(N)(=O)=O)ccc1OC [(-)-Sulpiride]
- inhibition at 5 µM [31]: 0.997%
- mean (LOPAC_screen_w_protease) [28]: 1.652

Compound: C[C@H]1c2cccc(O)c2C(=O)C2=C(O)[C@]3(O)C(=O)C(C(N)=O)=C(O)[C@@H](N(C)C)[C@@H]3[C@@H](O)[C@@H]21 [Doxycycline hydrochloride]
- inhibition at 5 µM [25]: 4.21%
- inhibition at 5 µM [26]: 5.78%
- inhibition at 5 µM [27]: 2.65%

Compound: Cl.Fc1ccc(C(OCCCc2c[nH]cn2)c2ccc(F)cc2)cc1
- mean [19]: 2.8
- Replicate_1 [20]: 1.774
- Replicate_2 [21]: 3.825

Compound: CCOC(=O)c1cnc2c(cnn2CC)c1NN=C(C)C [Etazolate hydrochloride]
- inhibition at 5 µM [32]: 6.78%
- inhibition at 5 µM [33]: 5.91%
- inhibition at 5 µM [34]: 7.65%

Compound: NC(CCCP(=O)(O)O)C(=O)O (racemic) [(±)-2-Amino-5-phosphonopentanoic acid]
- mean (LOPAC_screen_w_protease) [28]: 1.558
- Replicate_1 (LOPAC_screen_w_protease) [29]: 1.59
- Replicate_2 (LOPAC_screen_w_protease) [30]: 1.526

Compound: CCCc1c(OCCCOc2ccc(OCC(=O)O)cc2)ccc(C(C)=O)c1O [L-165,041]
- mean (LOPAC screen with protease) [1]: 13.6599
- Replicate_1 (LOPAC screen with protease) [2]: 14.4944
- Replicate_2 (LOPAC screen with protease) [3]: 12.8255
